Experimental data: patent publication US10227349B2, “Pyrazolo[1,5-a]pyrimidine compound” (Eisai R&D Management Co., Ltd., priority 2016, dated 2019)

What was measured:
[1] = target: T1, PAR2 (Homo sapiens, UniProt P55085); assay: Intracellular calcium concentration measurement (trypsin-induced calcium elevation, FDSS6000); assay type: cell-based; settings: HEK293 cells, trypsin 5 U/mL as agonist, test compound added 30 min before measurement; read-out: Inhibitory activity on intracellular calcium elevation (IC50 (nM))
T1 construct: Human embryonic kidney cell line HEK293 cells cultured using DMEM culture medium; endogenous in cells; host or cells: HEK293
T1 sequence (P55085 26-397): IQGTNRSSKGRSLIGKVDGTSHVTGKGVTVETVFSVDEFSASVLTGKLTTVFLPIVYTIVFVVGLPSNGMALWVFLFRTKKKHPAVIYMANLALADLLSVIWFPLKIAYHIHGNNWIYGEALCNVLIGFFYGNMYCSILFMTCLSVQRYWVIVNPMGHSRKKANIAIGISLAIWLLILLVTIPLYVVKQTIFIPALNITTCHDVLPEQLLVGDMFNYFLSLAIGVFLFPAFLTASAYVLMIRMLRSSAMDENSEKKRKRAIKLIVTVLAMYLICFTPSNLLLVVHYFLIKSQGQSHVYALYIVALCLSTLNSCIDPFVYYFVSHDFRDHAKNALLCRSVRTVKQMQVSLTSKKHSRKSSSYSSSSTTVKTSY
Source text: In the present specification, examples of the measurement method for the PAR2 inhibitory activity include measurement method for a concentration elevation of intracellular calcium; measurement method for a production increase of intracellular inositol trisphosphate; measurement method for an increase in intracellular protein phosphorylation by protein kinase C and MAP kinase; and measurement method for a production amount or a release amount of inflammation-related physiologically active substances such as cytokine, chemokine, prostaglandin and nitric monoxide. Examples of the measurement method for an elevation of intracellular calcium concentration include a method wherein a calcium-binding fluorescent probe is allowed to be incorporated in advance into a cultured cell line or an animal-derived isolated cell having PAR2, or a cell in which PAR2 is artificially expressed, a protease having the PAR2 activity function such as trypsin or a PAR2 agonist (synthetic peptides such as SLIGKV-NH2 (SEQ ID NO: 1) and SLIGRL-NH2 (SEQ ID NO: 2) is added to activate PAR2 whereby fluctuating intracellular calcium concentrations are detected as changes in the fluorescent signal. Alternatively, it is also possible to measure an intracellular calcium concentration by determining the quantity of a fluorescence intensity produced in proportion to the calcium concentration using a calcium-binding luminescent protein overexpressing cell line such as Aequorin. Specifically, examples include the methods described in Test Examples of the present specification.
Human embryonic kidney cell line HEK293 cells cultured using DMEM culture medium (Invitrogen) with 3% fetal bovine serum (3% FBS)-added was prepared to have a concentration of 2×10^5 cells/mL, and plated in a type I collagen-coated 384-well black plate (clear bottom) (Greiner) so as to be 25 μL/well and cultured in a CO2 incubator overnight. FLIPR Calcium Assay Kit (Molecular Devices) prepared with Hanks-20 mM Hepes buffer (pH 7.4) was added to the cells so as to be 25 μL/well and cultured in the CO2 incubator for 1 hour. Trypsin (SIGMA-ALDRICH, catalog number: T8816, Enzyme Commission Number 3.4.21.4) prepared so as to be 5 U/mL as final concentration (BAEE unit) with Hanks-20 mM Hepes buffer (pH 7.4) was added to a 384-well deep well polypropylene plate (Greiner) to be an agonist reagent plate. Thirty minutes before the measurement using FDSS6000 (Hamamatsu Photonics K.K.), a test compound prepared with Hanks-20 mM Hepes buffer (pH 7.4) was added to the cell so as to be 8 μL/well. The cell plate to which the test compound was added and the reagent plate were set on FDSS6000, 22 μL/well of the agonist solution was added from the reagent plate, and the change in intracellular calcium concentration was measured with a CCD camera. The measurement was carried out at 37° C. for 120 seconds and the addition of reagent from the reagent plate to the cell plate was carried out using a built-in 384-well automatic dispenser of FDSS6000.
Note that Reference Example 1 in Table 3 is the compound represented by formula (XIX) synthesized in the above Reference Example 1 (hereinafter, also referred to as Compound (XIX)). Additionally, the “Comparative Compound” in Table 3 is the compound described in Patent Literature 4 represented by the following formula (XX) (I-343; hereinafter, also referred to as Compound (XX)).

[2] = target: T2, PAR2 (Mus musculus, UniProt P55086); assay: Measurement of PAR2 agonist (SLIGRL-NH2)-induced salivation in mouse; assay type: in vivo; settings: C57BL/6J male mice, 0.3 mg/mL solution 10 mL/kg orally, 60 min before SLIGRL-NH2 i.p., saliva collected 10 min
T2 construct: orally administered to C57BL/6J male mice (Charles River), 6-10 weeks of age; tissue Charles River; host or cells: Living C57BL/6J male mice (in vivo; saliva secretion)
T2 sequence (P55086 26-399): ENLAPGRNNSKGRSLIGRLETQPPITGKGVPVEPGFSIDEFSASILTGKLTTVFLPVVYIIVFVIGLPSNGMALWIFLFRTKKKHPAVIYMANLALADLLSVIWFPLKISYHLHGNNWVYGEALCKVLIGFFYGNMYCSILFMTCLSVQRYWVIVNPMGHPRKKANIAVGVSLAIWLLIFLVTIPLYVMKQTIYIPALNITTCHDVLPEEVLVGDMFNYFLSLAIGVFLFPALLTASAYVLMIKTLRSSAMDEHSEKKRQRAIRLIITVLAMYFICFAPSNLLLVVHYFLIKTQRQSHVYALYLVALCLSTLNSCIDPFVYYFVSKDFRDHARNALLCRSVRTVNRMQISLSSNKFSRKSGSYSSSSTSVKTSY
Protocol: The test compound was added to a 0.5% carboxymethyl cellulose solution to which 2% DMSO was added, so as to have the final concentration of 0.3 mg/mL, thereby preparing an administration solution containing the test compound. The administration solution containing the test compound (10 mL/kg) was orally administered to C57BL/6J male mice (Charles River), 6-10 weeks of age, using an oral sonde and a syringe. Forty-five minutes after the administration of the test compound, 10 mL/kg of a 20% (w/v) urethane solution was intraperitoneal administered to the mice which were then anesthetized. Sixty minutes after the administration of the test compound, 10 mL/kg of a 0.1 mg/mL SLIGRL-NH2 (SEQ ID NO: 2) solution was intraperitoneally administered as the PAR2 agonist and a cotton ball was immediately placed in the oral cavity of the mouse to collect the saliva. Ten minutes after the administration of the PAR2 agonist, the cotton ball was removed and weighed to measure the amount of saliva secreted.
Note that Reference Example 1 in Table 4 is Compound (XIX). Additionally, Comparative Compound in Table 4 is Compound (XX).

[3] = test system: DNFB-induced dermatitis in BALB/c male mice; assay: Mouse dermatitis model (DNFB-induced auricle swelling); assay type: in vivo; settings: 0.3 mg/mL solution 10 mL/kg orally 8 hours after DNFB induction, auricle thickness on following day
Protocol: The test compound was added to a 0.5% carboxymethyl cellulose solution so as to have the final concentration of 0.3 mg/mL, thereby preparing an administration solution containing the test compound. Hapten used was 2,4-dinitrofluorobenzene (DNFB, Wako Pure Chemical Industries).
Twenty-five (25) μL of a solution of DNFB diluted to 0.4% with a mixed solvent of acetone and an olive oil in a volume ratio of 2:1 was applied twice to the shaved abdominal region of BALB/c male mice (Charles River), 6-10 weeks of age, over a period of 2 days to create the sensitization. Four days after the sensitization, on the first day, 20 μL of a solution of DNFB diluted to 0.2% with a mixed solvent of acetone and an olive oil in a volume ratio of 2:1 was applied to the right auricle of the mouse to induce dermatitis. Eight hours after the induction of dermatitis, the administration solution containing the test compound (10 mL/kg) was orally administered to the mouse. On the day following the induction of dermatitis, the right auricle thickness of the mouse was measured using a thickness gauge to evaluate the action of the test compound.
Note that Reference Example 1 in Table 5 is Compound (XIX).

IC50 [1]: 1.74 nM
Inhibitory activity on the PAR2-dependent saliva secretion (%) [2]: 96.0%
SMILES: COc1cccc(F)c1N(C)c1cc(-c2cc(F)c(F)c(F)c2)nc2cc(C(=O)N(C)[C@H](C)CC(=O)O)nn12 [Example 7, (R)-3-(7-((2-fluoro-6-methoxyphenyl)(methyl)amino)-N-methyl-5-(3,4,5-trifluorophenyl)pyrazolo[1,5-a]pyrimidine-2-carboxamide)butanoic acid]
Inhibitory activity on auricle swelling (%) [3]: 61.6%
